Assay results taken from patent US6812226B2, “P2X7 receptor antagonists for use in the treatment of inflammatory, immune or cardiovascular disease” (AstraZeneca AB, priority 1999, dated 2004).

Row | melting point | Structure (SMILES)
1 | 243 to 244 °C | O=C(O)c1ccccc1C(=O)c1ccc(N2CCC(N3C(=O)OCc4ccccc43)CC2)c([N+](=O)[O-])c1
2 | 120 °C | CC(C)NC(=O)c1ccc(N2CCC(N3C(=O)OCc4ccccc43)CC2)nn1
3 | 192 to 193 °C | COCCNC(=O)c1ccc(N2CCC(N3C(=O)OCc4ccccc43)CC2)c([N+](=O)[O-])c1
4 | 168 °C | CC(C)NS(=O)(=O)c1ccc(N2CCC(N3C(=O)OCc4ccccc43)CC2)c([N+](=O)[O-])c1
5 | 158 °C | Nc1ccc(N2CCC(N3C(=O)OCc4ccccc43)CC2)c(Cl)c1
6 | 200 °C | CC(C)NC(=O)c1ccc(N2CCC(N3C(=O)OCc4ccccc43)CC2)c(C#N)c1
7 | 228 °C | CC(C)C(=O)Nc1ccc(N2CCC(N3C(=O)OCc4ccccc43)CC2)c(Cl)c1
8 | 175 °C | CC(C)S(=O)(=O)Nc1ccc(N2CCC(N3C(=O)OCc4ccccc43)CC2)c(Cl)c1
9 | 155 °C | CN1CCC[C@H]1C(=O)Nc1ccc(N2CCC(N3C(=O)OCc4ccccc43)CC2)c(Cl)c1
10 | 195 °C | CC(C)NC(=O)c1cnc(N2CC[C@H](N3C(=O)OCc4ccccc43)[C@@H](C)C2)c(Cl)c1.Cl
11 | 236 to 239 °C | CC(C)NC(=O)c1cnc(N2CCC(N3C(=O)OCc4ccccc43)CC2)nc1
12 | 214 to 215 °C | CC(C)NC(=O)c1csc(N2CCC(N3C(=O)OCc4ccccc43)CC2)n1
13 | 240 to 242 °C | CC(C)NC(=O)c1ccc(N2CCC(N3C(=O)OCc4ccccc43)CC2)c(S(C)(=O)=O)c1
14 | 140 to 143 °C | CC(C)[C@@H](NC(=O)c1cnc(N2CCC(N3C(=O)OCc4ccccc43)CC2)c(Cl)c1)C(N)=O
15 | 125 to 128 °C | CC(CO)NC(=O)c1cnc(N2CCC(N3C(=O)OCc4ccccc43)CC2)c(Cl)c1 (centres unmarked)
16 | 135 to 138 °C | C#CC(C)(C)NC(=O)c1cnc(N2CCC(N3C(=O)OCc4ccccc43)CC2)c(Cl)c1
17 | 159 to 162 °C | N#CC(NC(=O)c1cnc(N2CCC(N3C(=O)OCc4ccccc43)CC2)c(Cl)c1)C(N)=O (centres unmarked)
18 | 139 to 142 °C | CC(C)C[C@@H](NC(=O)c1cnc(N2CCC(N3C(=O)OCc4ccccc43)CC2)c(Cl)c1)C(N)=O
19 | 139 to 142 °C | CC(C)C[C@H](NC(=O)c1cnc(N2CCC(N3C(=O)OCc4ccccc43)CC2)c(Cl)c1)C(N)=O
20 | 85 to 88 °C | CC(C)NC(=O)c1cnc(N2CCC(N3C(=O)COc4ccccc43)CC2)c(Cl)c1
21 | 193 to 195 °C | CC(C)NC(=O)c1ccc(N2CCC(N3C(=O)OCc4ccccc43)CC2)c([N+](=O)[O-])c1
22 | 217 to 219 °C | CC(C)NC(=O)c1cnc(N2CCC(N3C(=O)OCc4ccccc43)CC2)nc1C(F)(F)F
23 | 222 to 224 °C | O=C1OCc2ccccc2N1C1CCN(c2ccc(NCc3ncc[nH]3)cc2Cl)CC1
24 | 272 to 273 °C | O=C(c1ccccc1)c1ccc(N2CCC(N3C(=O)OCc4ccccc43)CC2)c([N+](=O)[O-])c1
25 | 177 to 179 °C | COC(=O)c1ccccc1C(=O)c1ccc(N2CCC(N3C(=O)OCc4ccccc43)CC2)c([N+](=O)[O-])c1
26 | 180 to 182 °C | NC(=O)c1ccccc1C(=O)c1ccc(N2CCC(N3C(=O)OCc4ccccc43)CC2)c([N+](=O)[O-])c1
27 | 201 to 203 °C | O=C(O)c1ccccc1C(=O)c1ccc(N2CCC(N3C(=O)CCc4ccccc43)CC2)c([N+](=O)[O-])c1
28 | 90 to 92 °C | COC(=O)c1ccccc1C(=O)c1ccc(N2CCC(N3C(=O)OCc4ccc(Cl)cc43)CC2)c([N+](=O)[O-])c1
29 | 162 to 168 °C | CC(C)NC(=O)c1cnc(N2CCC(n3c(=O)oc4ccccc43)CC2)c(Cl)c1 [Example 166, 5-Chloro-N-(1-methylethyl)-6-[4-(2-oxo-1,3-benzoxazol-3(2H)-yl)piperidin-1-yl]pyridine-3-carboxantide]
